≈ marks a conversion by molar mass, not a printed value. Like-named read-outs stand apart in the source and are kept apart here.
Key:
Assay type in all cases: physicochemical
[1] = Solubility of the allosteric effector compound in water and stabilizing agent solutions
Procedure: (§1) The pKa for 2-[4-[2-[(3,5-dimethylphenyl)amino]-2-oxoethyl]phenoxy]-2-methyl-propionic acid is about 3.5. Accordingly, there is an appreciable solubility at a pH of 7. The solubility of the sodium salt of 2-[4-[2-[(3,5-dimethylphenyl)amino]-2-oxoethyl]phenoxy]-2-methyl-propionic acid at a pH of 7 is about 50 mg/ml. […] It is thought that the addition of a stabilizing agent maintains the integrity of this small aggregate-like species.
This unforeseen problem of formation of particulate matter at concentrations beneath the solubility of the compound is solved by the addition of a stabilizing agent. The effect of the stabilizing agent is to prevent or minimize the formation of sub-visual particulates. In some embodiments, the stabilizing agent may also act as a buffer to stabilize the pH of the solution. In other embodiments, the stabilizing agent and buffering agent are different. The stabilizing agent acts to prevent the formation of significant amounts of sub-visual particulate matter, particularly after heat sterilization. The result is a formulation that can be terminally sterilized, have a long shelf life, and meet the USP 25 <788> sub-visual particulate matter requirements. Without being bound by theory, it is believed that stabilization of pH is one factor contributing to stabilization of the formulation; however, the pH of the solution alone is insufficient to stabilize the solutions. […] If necessary, the pH of the solution can be adjusted to a pH of at least about 6, preferably from about 6 to about 11. More preferably, the pH is adjusted to about 6.5 to about 9.0. More preferably, the pH is adjusted to about 7.5 to 8.5. The pH may be adjusted by the addition of any appropriate acid or base. Suitable acids may be amino acids, carboxylic acids, phosphoric acid, hydrochloric acid or other acids suitable for pharmaceutical preparations. Suitable bases include, sodium hydroxide or other bases suitable for pharmaceutical preparations.
Accordingly, stabilizing agents having an amine group are contemplated within the scope of this invention.

[2] = Chemical and physical (precipitate) stability of the formulation
Procedure: as §1
The allosteric modifying compound is chemically and physically stable between a pH of about 6 and about 11. Preferably, the composition has a pH of at least about 6. More preferably, the composition has a pH ranging from about 6 to about 11. Most preferably, the composition has a pH ranging from about 6.5 to about 9.0.
The composition of the present invention is chemically stable and stable with respect to the formation of particulate matter for at least about thirty days. This makes the composition particularly useful at the administration site because no additional steps, such as filtering the composition, are necessary prior to administration to a patient. Time is time after sterilization.

pKa = experiment: pKa
Procedure: as §1

[3] = 20 mg/mL (58.7 mmol/L), pH 7.5, no stabilizing compound, heat sterilized

| solubility ([1]; aqueous buffer, 0.5 M arginine solution, 23° C., pH 7.2-7.5, read-out: solubility) [mg/mL] | solubility ([1]; aqueous buffer, 0.5 M tris solution, 23° C., pH 7-8, read-out: solubility) [mg/mL] | solubility ([1]; aqueous buffer, 100-200 mM meglumine solutions, 23° C., pH 7.5, read-out: increase in solubility) [mg/mL] | solubility ([1]; in water, 23° C., read-out: solubility) [mg/mL] | chemical degradation [2, 3] | pKa (pKa) | solubility ([1]; pH 7, aqueous buffer, pH of 7, read-out: solubility) [mg/mL] | SMILES | precipitate formation after heat sterilization [2, 3] | precipitation / subvisual particulate formation in solution ([2]; 20 mg/ml, pH about 7, 25° C.) |
| --- | --- | --- | --- | --- | --- | --- | --- | --- | --- |
| 155 (≈ 454 mM) | 99.9 (≈ 293 mM) | ~12 (≈ 35.1 mM) | ~44 (≈ 129 mM) | stable to chemical degradation | ~3.5 | – | Cc1cc(C)cc(NC(=O)Cc2ccc(OC(C)(C)C(=O)O)cc2)c1 [2-[4-[2-[(3,5-dimethylphenyl)amino]-2-oxoethyl]phenoxy]-2-methyl-propionic acid] | developed a precipitate of the allosteric modifier within one week after sterilization | begins to precipitate out of solution, forming subvisual particulate |
| – | – | – | – | – | – | ~50 | Cc1cc(C)cc(NC(=O)Cc2ccc(OC(C)(C)C(=O)[O-])cc2)c1.[Na+] [sodium salt of 2-[4-[2-[(3,5-dimethylphenyl)amino]-2-oxoethyl]phenoxy]-2-methyl-propionic acid] | – | – |

Reference: patent US20030232887A1, “Preparation and use of a stable formulation of allosteric effector compounds” (priority 2002, published 2003)
